In patent US9969694B2, “N-(arylalkyl)-N′-pyrazolyl-urea, thiourea, guanidine and cyanoguanidine compounds as TrkA kinase inhibitors” (Array BioPharma Inc., priority 2012, dated 2018) one finds IC50 data, which are given here for 13 molecules.

Where only a bound is given, the exact number is not on record here.

Usually IC50 stands for the concentration that gives 50% inhibition.

T1 sequence (P04629 440-796 limits assumed): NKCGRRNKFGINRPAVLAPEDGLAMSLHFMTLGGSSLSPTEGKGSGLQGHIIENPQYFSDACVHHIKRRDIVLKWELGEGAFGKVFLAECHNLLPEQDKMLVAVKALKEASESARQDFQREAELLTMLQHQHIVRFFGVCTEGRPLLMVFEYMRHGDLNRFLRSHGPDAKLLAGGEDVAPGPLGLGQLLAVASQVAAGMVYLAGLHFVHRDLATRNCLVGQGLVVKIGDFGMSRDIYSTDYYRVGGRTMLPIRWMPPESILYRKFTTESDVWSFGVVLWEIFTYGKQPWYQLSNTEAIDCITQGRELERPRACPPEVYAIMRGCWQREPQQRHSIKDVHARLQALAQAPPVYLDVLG

The assay has as its target T1, His-tagged recombinant human TrkA (Homo sapiens, UniProt P04629).
T1 construct: 6HIS tagged cytoplasmic domain from Invitrogen, Catalog No. PV3144; purchased Invitrogen PV3144
Kind of assay: TrkA Kinase Binding Assay (LanthaScreen Eu). The conditions noted are these: averaged IC50; TR-FRET binding, 60 min, 22° C.; read-out: TrkA Enzyme IC50. Here is the method:
TrkA binding activity was determined in a TrkA LanthaScreen™ Eu Kinase Binding Assay. 5 nM His-tagged recombinant human TrkA (6HIS tagged cytoplasmic domain from Invitrogen, Catalog No. PV3144) was incubated with 4 nM Alexa-Fluor® Tracer 236 (Invitrogen Cat. No. PV5592), 2 nM biotinylated anti-His (Invitrogen Cat. No. PV6090), and 2 nM europium-labeled Streptavidin (Invitrogen Cat. No. PV5899), in buffer (25 mM MOPS, pH 7.5, 5 mM MgCl2, 0.005% Triton X-100). Three fold serial dilutions of compounds of the invention in DMSO were added to a final percentage of 2% DMSO. After 60-minute incubation at 22° C., the reaction was measured using the EnVision mutlimode plate reader (PerkinElmer) via TR-FRET dual wavelength detection at […]. The percent of control was calculated using a ratiometric emission factor. The IC50 values were determined by fitting a four parameter model to the percent of control data.
Table A provides averaged IC50 values for compounds of the invention when tested in the assay of Example A, where A represents an averaged IC50 value <100 nM; B represents an averaged IC50 value from 100 to 1,000 nM; and C represents an average 1050 value above 1000 nM.
With `COCc1ccc(C2CC2)c(C(C)NC(=O)Nc2c(C)c(-c3cnn(C)c3)nn2-c2ccccc2)c1` (stereo not shown) [Example 30, 1-(1-(2-cyclopropyl-5-(methoxymethyl)phenyl)ethyl)-3-(1′,4-dimethyl-1-phenyl-1H,1′H-[3,4′-bipyrazol]-5-yl)urea], the half-inhibitory concentration (IC50) lay within 100 to 1000 nM.
As for `COCc1ccc(C2(F)COC2)c(CNC(=O)Nc2c(C)c(-c3cnn(C)c3)nn2-c2ccccc2)c1` [Example 31, 1-(1′,4-dimethyl-1-phenyl-1H,1′H-[3,4′-bipyrazol]-5-yl)-3-(2-(3-fluorooxetan-3-yl)-5-(methoxymethyl)benzyl)urea], the IC50 was less than 100 nM.
As for `COCc1ccc(C2(F)COC2)c(CNC(=O)Nc2c(C)c(-c3ccc(C)nc3)nn2-c2ccccc2)c1` [Example 32, 1-(2-(3-fluorooxetan-3-yl)-5-(methoxymethyl)benzyl)-3-(4-methyl-3-(6-methylpyridin-3-yl)-1-phenyl-1H-pyrazol-5-yl)urea], the IC50 lay within 100 to 1000 nM.
Regarding `COCc1ccc(C(C)C)c(CNC(=O)Nc2c(C)c(-c3cnn(C)c3)nn2-c2ccccc2)c1` [Example 34, 1-(1′,4-dimethyl-1-phenyl-1H,1′H-[3,4′-bipyrazol]-5-yl)-3-(2-isopropyl-5-(methoxymethyl)benzyl)urea], the concentration for half-maximal inhibition (IC50) is less than 100 nM.
Consider `COCc1ccc(C(C)(C)C)c(CNC(=O)Nc2c(C)c(-c3cnn(C)c3)nn2-c2ccccc2)c1` [Example 35, 1-(2-(tert-butyl)-5-(methoxymethyl)benzyl)-3-(1′,4-dimethyl-1-phenyl-1H,1′H-[3,4′-bipyrazol]-5-yl)urea], for which the IC50 is less than 100 nM.
Consider `COCc1cc(CNC(=O)Nc2c(C)c(-c3cnn(C)c3)nn2-c2ccccc2)c(C2CCC2)cn1` [Example 36, 1-((5-cyclobutyl-2-(methoxymethyl)pyridin-4-yl)methyl)-3-(1′,4-dimethyl-1-phenyl-1H,1′H-[3,4′-bipyrazol]-5-yl)urea], for which the half-maximal inhibitory concentration (IC50) is less than 100 nM.
Turning to `Cc1c(-c2cnn(C)c2)nn(-c2ccccc2)c1NC(=O)NCc1ccncc1C1CCC1` [Example 37, 1-((3-cyclobutylpyridin-4-yl)methyl)-3-(1′,4-dimethyl-1-phenyl-1H,1′H-[3,4′-bipyrazol]-5-yl)ureaea], the IC50 is 100 to 1000 nM.
Take `COCc1ccc(C2CC(F)(F)C2)c(CNC(=O)Nc2c(C)c(-c3cnn(C)c3)nn2-c2ccccc2)c1` [Example 38, 1-(2-(3,3-difluorocyclobutyl)-5-(methoxymethyl)benzyl)-3-(1′,4-dimethyl-1-phenyl-1H,1′H-[3,4′-bipyrazol]-5-yl)urea]: the 50% inhibitory concentration (IC50) was less than 100 nM.
For the molecule `Cc1ccccc1CC(NC(=O)Nc1c2c(nn1-c1ccccc1)CCC2)c1ccccc1` (stereo not shown) [Example 39, 1-(2-phenyl-2,4,5,6-tetrahydrocyclopenta[c]pyrazol-3-yl)-3-(1-phenyl-2-o-tolylethyl)urea], the IC50 fell in the range of 100 to 1000 nM.
Then `O=C(Nc1c2c(nn1-c1ccccc1)CCC2)NC(Cc1ccccc1)c1ccccc1` (stereo not shown) [Example 40, 1-(1,2-diphenylethyl)-3-(2-phenyl-2,4,5,6-tetrahydrocyclopenta[c]pyrazol-3-yl)urea], with 100 to 1000 nM.
Consider `CC(Cc1ccccc1)(NC(=O)Nc1c2c(nn1-c1ccccc1)CCC2)c1ccccc1` (stereo not shown) [Example 41, 1-(1,2-diphenylpropan-2-yl)-3-(2-phenyl-2,4,5,6-tetrahydrocyclopenta[c]pyrazol-3-yl)urea], for which the IC50 fell in the range of 100 to 1000 nM.
With `O=C(Nc1c2c(nn1-c1ccccc1)CCC2)NC(Cc1ccccc1)Cc1ccccc1` [Example 42, 1-(1,3-diphenylpropan-2-yl)-3-(2-phenyl-2,4,5,6-tetrahydrocyclopenta[c]pyrazol-3-yl)urea], the IC50 is less than 100 nM.
Take `Cc1c(-c2cnn(C)c2)nn(-c2ccccc2)c1NC(=O)NCc1cccc2ccccc12` [Example 43, 1-(1′,4-dimethyl-1-phenyl-1H,1′H-3,4′-bipyrazol-5-yl)-3-(naphthalen-1-ylmethyl)urea]: the half-inhibitory concentration (IC50) fell in the range of 100 to 1000 nM.
